Results on three compounds are retold here after US5466671A, “Apidaecin-type peptide antibiotics with improved activities and/or different antibacterial spectrum” (priority 1994, dated 1995).

For test [1], the system named is Escherichia coli (ATCC11775). Description: Inhibition zone assay (agar plate). Type of test: cell-based. The following applies: for Inhibition zones: in mm diameter: 50 nanomoles per well (3 mm diameter); for inhibition zone diameter (number of plus signs): agar plate, 50 nanomoles/well, 3 mm wells.
A further test has as its system Enterobacter cloacae. Description: Inhibition zone assay (agar plate). It is filed as cell-based. The following applies: for Inhibition zones: in mm diameter: 50 nanomoles per well (3 mm diameter); for inhibition zone diameter (number of plus signs): agar plate, 50 nanomoles/well, 3 mm wells.
The next test concerns Erwinia amylovora. The test can be described thus: Inhibition zone assay (agar plate). It is filed as cell-based. The following applies: for Inhibition zones: in mm diameter: 50 nanomoles per well (3 mm diameter); for inhibition zone diameter (number of plus signs): agar plate, 50 nanomoles/well, 3 mm wells.
A further test relates to Klebsiella pneumoniae. Description: Inhibition zone assay (agar plate). Type of test: cell-based. Particulars: for Inhibition zones: in mm diameter: 50 nanomoles per well (3 mm diameter); for inhibition zone diameter (number of plus signs): agar plate, 50 nanomoles/well, 3 mm wells.
A further test has as its system Salmonella typhimurium. The test can be described thus: Inhibition zone assay (agar plate). Type of test: cell-based. Particulars: for Inhibition zones: in mm diameter: 50 nanomoles per well (3 mm diameter); for inhibition zone diameter (number of plus signs): agar plate, 50 nanomoles/well, 3 mm wells.
In the next test the test system is Salmonella typhi. Type of test: cell-based. Particulars: 50 nanomoles per well (3 mm diameter).
The next test deals with Shigella dysenteriae. It is filed as cell-based. Particulars: 50 nanomoles per well (3 mm diameter).
Test [2] deals with Acinetobacter calcoaceticus. Description: Inhibition zone assay (agar plate). It is filed as cell-based. Particulars: for Inhibition zones: in mm diameter: 50 nanomoles per well (3 mm diameter); for inhibition zone diameter (number of plus signs): agar plate, 50 nanomoles/well, 3 mm wells.
The test system of test [3] is Agrobacterium tumefaciens. Description: Inhibition zone assay (agar plate). Type of test: cell-based. The following applies: for Inhibition zones: in mm diameter: 50 nanomoles per well (3 mm diameter); for inhibition zone diameter (number of plus signs): agar plate, 50 nanomoles/well, 3 mm wells.
A further test concerns Pseudomonas syringae. Description: Inhibition zone assay (agar plate). Type of test: cell-based. The following applies: for Inhibition zones: in mm diameter: 50 nanomoles per well (3 mm diameter); for inhibition zone diameter (number of plus signs): agar plate, 50 nanomoles/well, 3 mm wells.
In the next test the test system is E. coli D22. It is filed as cell-based. The following applies: 50 nanomoles per well (3 mm diameter).
In another test the test system is Morganella morganii. The test can be described thus: Inhibition zone assay (agar plate). Type of test: cell-based. The following applies: 50 nanomoles/well, 3 mm wells.
The test system of a further test is Yersinia enterocolitica. The test can be described thus: Inhibition zone assay (agar plate). It is filed as cell-based. Particulars: 50 nanomoles/well, 3 mm wells.
The next test concerns Rhizobium meliloti. Description: Inhibition zone assay (agar plate). It is filed as cell-based. Particulars: 50 nanomoles/well, 3 mm wells.
The subject of a further test is Haemophilus influenzae. Description: Inhibition zone assay (agar plate). It is filed as cell-based. The following applies: 50 nanomoles/well, 3 mm wells.
In the next test the test system is E. coli Apid^R. Description: Minimal inhibitory concentration (liquid culture). It is filed as cell-based. Particulars: a-b = highest concentration with growth - lowest without growth. The source says: For details see `Experimental Procedures`.
A further test relates to E. coli 11775. Description: Minimal inhibitory concentration (liquid culture). The following applies: for minimal inhibitory concentration (MIC): a-b = highest concentration with growth - lowest without growth.
Another test relates to E. coli 23802. The test can be described thus: Minimal inhibitory concentration (liquid culture). The following applies: inoculum 5000 CFU/ml; a-b = highest concentration with growth - lowest without growth.
The subject of a further test is E. coli 25922. The test can be described thus: Minimal inhibitory concentration (liquid culture). Particulars: inoculum 1100 CFU/ml; a-b = highest concentration with growth - lowest without growth.
For the next test, the system named is S. typhimurium. The test can be described thus: Minimal inhibitory concentration (liquid culture). Particulars: inoculum 8 × 10^6 CFU/ml; a-b = highest concentration with growth - lowest without growth.
The next test relates to A. calcoaceticus. Description: Minimal inhibitory concentration (liquid culture). The following applies: inoculum 16 × 10^6 CFU/ml; a-b = highest concentration with growth - lowest without growth.
The next test deals with M. morganii. Description: Minimal inhibitory concentration (liquid culture). The following applies: inoculum 400 CFU/ml; a-b = highest concentration with growth - lowest without growth.
In another test the test system is Y. enterocolitica. Description: Minimal inhibitory concentration (liquid culture). The following applies: inoculum 5000 CFU/ml; a-b = highest concentration with growth - lowest without growth.
The subject of the next test is Legionella pneumophila. Type of test: cell-based. The following applies: agar plate, 50 nanomoles/well, 3 mm wells.

Residues, ends and D or L forms follow the SMILES beside them.

As for `CC[C@H](C)[C@H](NC(=O)[C@@H]1CCCN1C(=O)[C@@H](NC(=O)[C@H](CCC(N)=O)NC(=O)[C@@H]1CCCN1C(=O)[C@H](CO)NC(=O)[C@@H]1CCCN1C(=O)[C@H](CCCNC(=N)N)NC(=O)[C@@H](N)CO)C(C)C)C(=O)N[C@@H](CCCNC(=N)N)C(=O)N1CCC[C@H]1C(=O)N[C@@H](CO)C(=O)N[C@@H](CCC(N)=O)C(=O)N1CCC[C@H]1C(=O)N[C@@H](CCCNC(=N)N)C(=O)N1CCC[C@H]1C(=O)N[C@@H](CCC(N)=O)C(=O)N1CCC[C@H]1C(=O)NCC(=O)N[C@@H](CCCCN)C(=O)N1CCC[C@H]1C(=O)N[C@@H](CCCNC(=N)N)C(=O)N1CCC[C@H]1C(=O)N[C@@H](CCC(N)=O)C(=O)N[C@@H](CCC(N)=O)C(=O)N[C@H](C(=O)N1CCC[C@H]1C(=O)N1CCC[C@H]1C(=O)N[C@@H](CCCNC(=N)N)C(=O)N[C@H](C(=O)N1CCC[C@H]1C(=O)N[C@@H](Cc1c[nH]cn1)C(=O)N1CCC[C@H]1C(=O)N[C@@H](CCCNC(=N)N)C(=O)N[C@@H](CC(C)C)C(=O)O)[C@@H](C)O)C(C)C` [PAB-GT, SRPSPQVPIRPSQPRPQPGKPRPQQVPPRTPHPRL] (H-SRPSPQVPIRPSQPRPQPGKPRPQQVPPRTPHPRL-OH), the “Inhibition zones: in mm diameter” value in [1] was 8 mm; in the test with Enterobacter cloacae, 9 mm; in the test with Erwinia amylovora, 6 mm; with Klebsiella pneumoniae, 8 mm; with Salmonella typhimurium, 6 mm; in the test on Salmonella typhi it was 12 mm. In addition, the “Inhibition zones: in mm diameter” value in the test on Shigella dysenteriae is 10 mm; in test [2], 8 mm; in [3], 5 mm; in the test with Pseudomonas syringae, 5 mm; with E. coli D22, 13 mm.
For the compound `CC(C)C[C@H](NC(=O)[C@H](CCCNC(=N)N)NC(=O)[C@@H]1CCCN1C(=O)[C@H](Cc1c[nH]cn1)NC(=O)[C@@H]1CCCN1C(=O)[C@@H]1CCCN1C(=O)[C@H](CCCNC(=N)N)NC(=O)[C@@H]1CCCN1C(=O)[C@@H]1CCCN1C(=O)[C@@H](NC(=O)[C@H](CCC(N)=O)NC(=O)[C@H](CCC(N)=O)NC(=O)[C@@H]1CCCN1C(=O)[C@H](CCCNC(=N)N)NC(=O)[C@@H]1CCCN1C(=O)[C@H](CCCCN)NC(=O)CN)C(C)C)C(=O)O` [Ho +, G K P R P Q Q V P P R P P H P R L] (H-GKPRPQQVPPRPPHPRL-OH), the “Inhibition zones: in mm diameter” value in test [1] worked out at 15 mm; with Enterobacter cloacae, 15 mm; in the test with Erwinia amylovora, 12 mm; in the test with Klebsiella pneumoniae, 15 mm; in the test with Salmonella typhimurium, 14 mm; in the test with Salmonella typhi, 20 mm. In addition, the “Inhibition zones: in mm diameter” value in the test with Shigella dysenteriae was 18 mm; in [2], 5 mm; in test [3], 12 mm; in the test on Pseudomonas syringae it was 13 mm; in the test with E. coli D22 it was 14 mm. Also, the “inhibition zone diameter (number of plus signs)” value (“inhibition zone diameter” for short) is on record as “+++ ((+++) 10-14 mm)” in test [1]; “+++ ((+++) 10-14 mm)” with Enterobacter cloacae; “+++ ((+++) 10-14 mm)” in the test on Erwinia amylovora; “+++ ((+++) 10-14 mm)” with Klebsiella pneumoniae; “++ ((++) 7-9 mm)” in the test on Morganella morganii; “+++ ((+++) 10-14 mm)” in the test with Salmonella typhimurium. In addition, the “inhibition zone diameter” value is reported as “++++ ((++++) 15-19 mm)” with Yersinia enterocolitica; “+ ((+) 5-6 mm)” in [2]; “++ ((++) 7-9 mm)” in test [3]; “+++ ((+++) 10-14 mm)” in the test with Pseudomonas syringae; “++++ ((++++) 15-19 mm)” in the test on Rhizobium meliloti; “+++ ((+++) 10-14 mm)” in the test on Haemophilus influenzae. Further, the “minimal inhibitory concentration (MIC)” value in the test on E. coli Apid^R (inoculum 1000 CFU/ml) lay in the range of 1 to 5 µg/mL; in the test on E. coli 11775 (inoculum 16 × 10^6 CFU/ml), 0.1 to 0.5 µg/mL; in the test on E. coli 11775 (inoculum 1200 CFU/ml) it was 0.1 to 0.5 µg/mL; with E. coli 23802 it was 0.5 to 1 µg/mL; in the test with E. coli 25922 it was 0.1 to 0.5 µg/mL; with S. typhimurium, 0.5 to 1 µg/mL. Moreover, the “minimal inhibitory concentration (MIC)” value was 2 to 10 µg/mL in the test on A. calcoaceticus, 1 to 5 µg/mL with M. morganii and 1 to 5 µg/mL with Y. enterocolitica. The “inoculum effect on inhibition of viability” value with E. coli 11775 (inoculum sizes differing by four orders of magnitude) is reported as “equally well”.
`CC[C@H](C)[C@H](NC(=O)[C@H](Cc1ccc(O)cc1)NC(=O)[C@@H](NC(=O)[C@@H]1CCCN1C(=O)[C@H](CCCNC(=N)N)NC(=O)[C@@H](N)CC(N)=O)C(C)C)C(=O)N1CCC[C@H]1C(=O)N1CCC[C@H]1C(=O)N1CCC[C@H]1C(=O)N[C@@H](CCCNC(=N)N)C(=O)N1CCC[C@H]1C(=O)N1CCC[C@H]1C(=O)N[C@@H](Cc1c[nH]cn1)C(=O)N1CCC[C@H]1C(=O)N[C@@H](CCCNC(=N)N)C(=O)N[C@@H](CC(C)C)C(=O)O` [Bb-A] (H-NRPVYIPPPRPPHPRL-OH): the “inhibition zone diameter” value is “++++ ((++++) 15-19 mm)” in test [1]; “+++ ((+++) 10-14 mm)” in the test on Enterobacter cloacae; “++++ ((++++) 15-19 mm)” in the test on Erwinia amylovora; “++ ((++) 7-9 mm)” in the test with Klebsiella pneumoniae; “+++ ((+++) 10-14 mm)” in the test with Salmonella typhimurium; “+++ ((+++) 10-14 mm)” in the test on Yersinia enterocolitica. The “inhibition zone diameter” value in test [2] is on record as “++ ((++) 7-9 mm)”; in [3], “++++ ((++++) 15-19 mm)”; with Legionella pneumophila, “+ ((+) 5-6 mm)”; with Pseudomonas syringae it was “++++ ((++++) 15-19 mm)”; in the test with Rhizobium meliloti, “+++++ ((+++++) 20 or more min)”; with Haemophilus influenzae, “++ ((++) 7-9 mm)”. Further, the “minimal inhibitory concentration (MIC)” value is above 40 µg/mL in the test with E. coli Apid^R (inoculum 12 × 10^6 CFU/ml); above 40 µg/mL in the test on E. coli Apid^R (inoculum 1000 CFU/ml); 1 to 5 µg/mL in the test on E. coli 11775 (inoculum 16 × 10^6 CFU/ml); 0.1 to 0.5 µg/mL in the test with E. coli 11775 (inoculum 1200 CFU/ml); 10 to 20 µg/mL in the test on E. coli 23802; 1 to 5 µg/mL in the test on E. coli 25922. In addition, the “minimal inhibitory concentration (MIC)” value in the test on S. typhimurium is 0.5 to 1 µg/mL; with A. calcoaceticus, above 20 µg/mL; in the test on M. morganii it was above 40 µg/mL; in the test with Y. enterocolitica it was 1 to 5 µg/mL.
